Values quoted from earlier work, collected in US20090197946A1, “COMPOSITION AND METHOD FOR TREATMENT OF INFLAMATION AND INFECTIONS OF THE GENITALIA, CONTRACEPTIVE AND THE PROPHYLAXIS OF SEXUALLY TRANSMITTED DISEASES” (priority 2008, published 2009).

Tests used:
[1] = test system: vaginal epithelium; settings: topical, African commercial sex workers
[2] = in vivo

Question: With nonoxynol 9 as the compound, how does the “effect of frequent use on the vaginal epithelium” value [1] read?
Answer: Its value is “damaged the vaginal epithelium”.

Question: And the “susceptibility to the HIV infection” value ([1]; frequent use)?
Answer: The value was “increased their susceptibility to the HIV infection”.

Question: Which “known potential side effects” value [2] does the source give for `CC(C)OC(=O)OCOP(=O)(CO[C@H](C)Cn1cnc2c(N)ncnc21)OCOC(=O)OC(C)C` [Viread, Tenofovir] here?
Answer: Its value is “nausea, diarrhea, vomiting and flatulence”.
